From patent US20250339445A1, “Modulators of Orphan Nuclear Receptors for Treating Pancreatitis, Glioblastoma, Sarcopenia and Stroke” (Emory University, priority 2020, published 2025)

Experiments:
[1] = system: Sgp130FC mice; experiment: Sgp130FC mice treated with Compound 1; format: in vivo; details: 7.5 mg/kg ip twice/week, four weeks
Experimental: Sgp130FC mice were injected (ip) with Compound 1 for four weeks (7.5 mg/kg, twice/week). FIGS. 6A-6B show the qRT-PCR analysis of miR-122 levels in plasma (6A), and in the livers (6B) after 4 weeks treatment with saline (as a control) and Compound 1. MicroRNA-18 was used as a negative control and its plasma and liver levels were not affected following treatment with Compound 1. The effect seen on this microRNA in FIG. 6A is not significant compared to the significant effect seen on miR-122.
Compound 1 and AntagomiR injections to mice. C57BL/6 male mice, 7-8 weeks old, or Sgp130FC, 9-month-old male mice, were injected i.p. with 7.5 mg/kg Compound 1 dissolved in saline and 3% DMSO. Saline was injected as control. Mice were hydrodynamic tail vain injected with antagomiR-122 or antagomiR-control (negative control) (5 μg/mouse in 1.5 ml saline). Mice were sacrificed according to the legend of the figure describing the experimental results and the livers, white adipose and skeletal muscle tissues were frozen in liquid nitrogen or in OCT embedded frozen blocks, for further RNA and histologic analysis. AntagomiRs were obtained from Sigma Aldrich, see Table 3.

[2] = Cellular toxicity assay, CEM cells; format: cell-based; details: human, CEM cells (human lymphoblastoid), compared to cycloheximide (+ control)
Experimental: (§1) The toxicity of the compounds was assessed in human PBM, CEM (human lymphoblastoid), and Huh-7 cells, as described previously (see Schinazi R. F., Sommadossi J.-P., Saalmann V., Cannon D. L., Xie M.-Y., Hart G. C., Smith G. A. & Hahn E. F. Antimicrob. Agents Chemother. 1990, 34, 1061-67). Cycloheximide was included as positive cytotoxic control, and untreated cells exposed to solvent were included as negative controls. The cytotoxicity IC50 was obtained from the concentration-response curve using the median effective method described previously (see Chou T.-C. & Talalay P. Adv. Enzyme Regul. 1984, 22, 27-55; Belen'kii M. S. & Schinazi R. F. Antiviral Res. 1994, 25, 1-11).

[3] = system: CD4^+ Th17 cells; experiment: Modulation of Th17 populations in human PBMCs (flow cytometry); format: cell-based; details: 10 μM, 3 day assay
Experimental: Human peripheral blood mononuclear cells (PBMCs) were isolated from four healthy donors. Four experiments were conducted and analyzed by flow cytometry over 3 day assay. The control group had no drug treatment, a second were treated with 10 μM Compound 1, a third group was stimulated with PHA/IL-2 without treatment, and the fourth group was stimulated with PHA/IL-2 and incubated with 10 μM Compound 1. […] Further, Compound 1 has no effect on Th17 populations in the absence of PHA/IL-2 stimulation.

[4] = Cellular toxicity assay, Huh-7 cells; format: cell-based; details: human, compared to cycloheximide (+ control)
Experimental: as §1

Structure (SMILES): O=C1Nc2cc(C(=O)N3CCC(Cc4ccccc4)CC3)ccc2Nc2ccccc21 [Compound 1]
- Liver and muscle triglyceride levels [1]: reduces liver and muscle triglyceride levels
- MicroRNA-18 plasma and liver levels (negative control) [1]: not affected
- miR-122 expression (plasma, liver) [1]: increases miR-122 expression
- CC50 [2]: 11 µM
- Th17 total population in the presence of PHA/IL-2 stimulation ([3]; relative to vehicle-control): decreases the CD4^+ Th17 population
- Total viability of CD4^+ T cells ([3]; with or without PHA/IL-2): no effect
- CC50 [4]: 10.4 µM
